Read-outs that look alike come from different tables or passages of the source.
What was measured:
Assay type in all cases: cell-based
SARS-CoV-2 [1] = assay: microbe, parasite or virus in culture; conditions: Severe acute respiratory syndrome coronavirus 2, Vero C1008, Vero E6 cells, plaque reduction; read-out: antiviral EC50
SARS-CoV-2 [2] = conditions: Vero E6 cells; tested 80 nM to 10 μM, two repeats
SARS-CoV-2 [3] = conditions: A549/ACE2 cells; tested 80 nM to 10 μM
SARS-CoV-2 M^Pro = SARS-CoV-2 M^Pro (Severe acute respiratory syndrome coronavirus 2, UniProt P0DTD1)

| Structure (SMILES) | EC50 (SARS-CoV-2 [1]) [nM] | concentration of complete abolition of SARS-CoV-2-induced CPE (SARS-CoV-2 [2]) [µM] | concentration of complete abolition of SARS-CoV-2-induced CPE (SARS-CoV-2 [3]) | suppression of M^Pro-eGFP toxicity / promotion of cell survival and M^Pro-eGFP expression (SARS-CoV-2 M^Pro) |
| --- | --- | --- | --- | --- |
| C[C@@H](OC(C)(C)C)[C@H](NC(=O)OCc1ccccc1)C(=O)N[C@@H](Cc1ccccc1)C(=O)N[C@H](C=O)C[C@@H]1CCNC1=O [MPI7, benzyl ((2S,3R)-3-(tert-butoxy)-1-oxo-1-(((S)-1-oxo-1-(((S)-1-oxo-3-((S)-2-oxopyrrolidin-3-yl)propan-2-yl)amino)-3-phenylpropan-2-yl)amino)butan-2-yl)carbamate] | 170 | 2.5 to 5 | not able to completely abolish CPE at all tested conditions | – |
| C[C@@H](OC(C)(C)C)[C@H](NC(=O)OCc1ccccc1)C(=O)N[C@@H](CC1CCCCC1)C(=O)N[C@H](C=O)C[C@@H]1CCNC1=O [MPI8, benzyl ((2S,3R)-3-(tert-butoxy)-1-(((S)-3-cyclohexyl-1-oxo-1-(((S)-1-oxo-3-((S)-2-oxopyrrolidin-3-yl)propan-2-yl)amino)propan-2-yl)amino)-1-oxobutan-2-yl)carbamate] | – | – | – | effectively suppressed |

Reference: patent US20230212116A1, “SARS-COV-2 MAIN PROTEASE INHIBITORS” (TEXAS A&M UNIVERSITY SYSTEM, priority 2020, published 2023)
